Source: ChEMBL document CHEMBL1148993, “UV-mediated genotoxicity of furanoquinoline and of certain tryptophan-derived alkaloids” (J Nat Prod, 1983)

How the values were obtained:
[1] = tested on: Escherichia coli; experiment: Phototoxicity against Escherichia coli at 100 ug/disk after irradiation with W/m'2 UV light; format: functional; settings: light or radiation study, read-out: IZ
[2] = tested on: Escherichia coli; experiment: Phototoxicity against Escherichia coli at 100 ug/disk in dark; format: functional; settings: light or radiation study, read-out: IZ
[3] = tested on: Pseudomonas aeruginosa; experiment: Phototoxicity against Pseudomonas aeruginosa at 100 ug/disk after irradiation with W/m'2 UV light; format: functional; settings: light or radiation study, read-out: IZ
[4] = tested on: Pseudomonas aeruginosa; experiment: Phototoxicity against Pseudomonas aeruginosa at 100 ug/disk in dark; format: functional; settings: light or radiation study, read-out: IZ
[5] = tested on: Pseudomonas fluorescens; experiment: Phototoxicity against Pseudomonas fluorescens at 100 ug/disk after irradiation with W/m'2 UV light; format: functional; settings: light or radiation study, read-out: IZ
[6] = tested on: Pseudomonas fluorescens; experiment: Phototoxicity against Pseudomonas fluorescens at 100 ug/disk in dark; format: functional; settings: light or radiation study, read-out: IZ
[7] = tested on: Bacillus subtilis; experiment: Phototoxicity against Bacillus subtilis at 100 ug/disk after irradiation with W/m'2 UV light; format: functional; settings: light or radiation study, read-out: IZ
[8] = tested on: Bacillus subtilis; experiment: Phototoxicity against Bacillus subtilis at 100 ug/disk in dark; format: functional; settings: light or radiation study, read-out: IZ
[9] = tested on: Enterococcus faecalis; experiment: Phototoxicity against Streptococcus faecalis at 100 ug/disk after irradiation with W/m'2 UV light; format: functional; settings: light or radiation study, read-out: IZ
[10] = tested on: Enterococcus faecalis; experiment: Phototoxicity against Streptococcus faecalis at 100 ug/disk in dark; format: functional; settings: light or radiation study, read-out: IZ
[11] = tested on: Staphylococcus aureus; experiment: Phototoxicity against Staphylococcus aureus at 100 ug/disk after irradiation with W/m'2 UV light; format: functional; settings: light or radiation study, read-out: IZ
[12] = tested on: Staphylococcus aureus; experiment: Phototoxicity against Staphylococcus aureus at 100 ug/disk in dark; format: functional; settings: light or radiation study, read-out: IZ
[13] = tested on: Candida albicans; experiment: Phototoxicity against Candida albicans at 100 ug/disk after irradiation with W/m'2 UV light; format: functional; settings: light or radiation study, read-out: IZ
[14] = tested on: Candida albicans; experiment: Phototoxicity against Candida albicans at 100 ug/disk in dark; format: functional; settings: light or radiation study, read-out: IZ
[15] = tested on: Saccharomyces cerevisiae; experiment: Phototoxicity against Saccharomyces cerevisiae at 100 ug/disk after irradiation with W/m'2 UV light; format: functional; settings: light or radiation study, read-out: IZ
[16] = tested on: Saccharomyces cerevisiae; experiment: Phototoxicity against Saccharomyces cerevisiae at 100 ug/disk in dark; format: functional; settings: light or radiation study, read-out: IZ
[17] = tested on: CHO; experiment: Genotoxicity in CHO cells assessed as chromosomal aberrations at 12.5 ppm after 60 mins in dark followed by 5 W/m'2 UV irradiation for 30 mins; format: toxicity, cell-based, Cricetulus griseus; settings: chinese hamster, 0.5 h
[18] = tested on: CHO; experiment: Genotoxicity in CHO cells assessed as chromosomal aberrations at 12.5 ppm after 90 mins in dark; format: toxicity, cell-based, Cricetulus griseus; settings: chinese hamster, 1.5 h
[19] = tested on: CHO; experiment: Genotoxicity in CHO cells assessed as mitotic inhibition at 3.12 ppm after 60 mins in dark followed by 5 W/m'2 UV irradiation for 30 mins; format: toxicity, cell-based, Cricetulus griseus; settings: chinese hamster, 0.5 h
[20] = tested on: CHO; experiment: Genotoxicity in CHO cells assessed as chromosomal aberrations at 1.56 ppm after 60 mins in dark followed by 5 W/m'2 UV irradiation for 30 mins; format: toxicity, cell-based, Cricetulus griseus; settings: chinese hamster, 0.5 h
[21] = tested on: CHO; experiment: Genotoxicity in CHO cells assessed as chromosomal aberrations at 0.78 ppm after 60 mins in dark followed by 5 W/m'2 UV irradiation for 30 mins; format: toxicity, cell-based, Cricetulus griseus; settings: chinese hamster, 0.5 h
[22] = tested on: CHO; experiment: Genotoxicity in CHO cells assessed as chromosomal aberrations at 0.39 ppm after 60 mins in dark followed by 5 W/m'2 UV irradiation for 30 mins; format: toxicity, cell-based, Cricetulus griseus; settings: chinese hamster, 0.5 h
[23] = tested on: CHO; experiment: Genotoxicity in CHO cells assessed as chromosomal aberrations at 0.19 ppm after 60 mins in dark followed by 5 W/m'2 UV irradiation for 30 mins; format: toxicity, cell-based, Cricetulus griseus; settings: chinese hamster, 0.5 h
[24] = tested on: CHO; experiment: Genotoxicity in CHO cells assessed as chromosomal aberrations at 6.25 ppm after 60 mins in dark followed by 5 W/m'2 UV irradiation for 30 mins; format: toxicity, cell-based, Cricetulus griseus; settings: chinese hamster, 0.5 h
[25] = tested on: Escherichia coli; experiment: Phototoxicity against Escherichia coli at 16.7 ug/disk after irradiation with W/m'2 UV light; format: functional; settings: light or radiation study, read-out: IZ
[26] = tested on: Escherichia coli; experiment: Phototoxicity against Escherichia coli at 16.7 ug/disk in dark; format: functional; settings: light or radiation study, read-out: IZ
[27] = tested on: Pseudomonas aeruginosa; experiment: Phototoxicity against Pseudomonas aeruginosa at 16.7 ug/disk after irradiation with W/m'2 UV light; format: functional; settings: light or radiation study, read-out: IZ
[28] = tested on: Pseudomonas aeruginosa; experiment: Phototoxicity against Pseudomonas aeruginosa at 16.7 ug/disk in dark; format: functional; settings: light or radiation study, read-out: IZ
[29] = tested on: Pseudomonas fluorescens; experiment: Phototoxicity against Pseudomonas fluorescens at 16.7 ug/disk after irradiation with W/m'2 UV light; format: functional; settings: light or radiation study, read-out: IZ
[30] = tested on: Pseudomonas fluorescens; experiment: Phototoxicity against Pseudomonas fluorescens at 16.7 ug/disk in dark; format: functional; settings: light or radiation study, read-out: IZ
[31] = tested on: Bacillus subtilis; experiment: Phototoxicity against Bacillus subtilis at 16.7 ug/disk after irradiation with W/m'2 UV light; format: functional; settings: light or radiation study, read-out: IZ
[32] = tested on: Bacillus subtilis; experiment: Phototoxicity against Bacillus subtilis at 16.7 ug/disk in dark; format: functional; settings: light or radiation study, read-out: IZ
[33] = tested on: Enterococcus faecalis; experiment: Phototoxicity against Streptococcus faecalis at 16.7 ug/disk after irradiation with W/m'2 UV light; format: functional; settings: light or radiation study, read-out: IZ
[34] = tested on: Enterococcus faecalis; experiment: Phototoxicity against Streptococcus faecalis at 16.7 ug/disk in dark; format: functional; settings: light or radiation study, read-out: IZ
[35] = tested on: Staphylococcus aureus; experiment: Phototoxicity against Staphylococcus aureus at 16.7 ug/disk after irradiation with W/m'2 UV light; format: functional; settings: light or radiation study, read-out: IZ
[36] = tested on: Staphylococcus aureus; experiment: Phototoxicity against Staphylococcus aureus at 16.7 ug/disk in dark; format: functional; settings: light or radiation study, read-out: IZ
[37] = tested on: Candida albicans; experiment: Phototoxicity against Candida albicans at 16.7 ug/disk after irradiation with W/m'2 UV light; format: functional; settings: light or radiation study, read-out: IZ
[38] = tested on: Candida albicans; experiment: Phototoxicity against Candida albicans at 16.7 ug/disk in dark; format: functional; settings: light or radiation study, read-out: IZ
[39] = tested on: Saccharomyces cerevisiae; experiment: Phototoxicity against Saccharomyces cerevisiae at 16.7 ug/disk after irradiation with W/m'2 UV light; format: functional; settings: light or radiation study, read-out: IZ
[40] = tested on: Saccharomyces cerevisiae; experiment: Phototoxicity against Saccharomyces cerevisiae at 16.7 ug/disk in dark; format: functional; settings: light or radiation study, read-out: IZ
[41] = tested on: CHO; experiment: Genotoxicity in CHO cells assessed as chromosomal aberrations at 83.5 ppm after 60 mins in dark followed by 5 W/m'2 UV irradiation for 30 mins; format: toxicity, cell-based, Cricetulus griseus; settings: chinese hamster, 0.5 h
[42] = tested on: CHO; experiment: Genotoxicity in CHO cells assessed as chromosomal aberrations at 83.5 ppm after 90 mins in dark; format: toxicity, cell-based, Cricetulus griseus; settings: chinese hamster, 1.5 h
[43] = tested on: CHO; experiment: Genotoxicity in CHO cells assessed as chromosomal aberrations at 41.7 ppm after 60 mins in dark followed by 5 W/m'2 UV irradiation for 30 mins; format: toxicity, cell-based, Cricetulus griseus; settings: chinese hamster, 0.5 h
[44] = tested on: CHO; experiment: Genotoxicity in CHO cells assessed as chromosomal aberrations at 20.8 ppm after 60 mins in dark followed by 5 W/m'2 UV irradiation for 30 mins; format: toxicity, cell-based, Cricetulus griseus; settings: chinese hamster, 0.5 h
[45] = tested on: CHO; experiment: Genotoxicity in CHO cells assessed as chromosomal aberrations at 10.4 ppm after 60 mins in dark followed by 5 W/m'2 UV irradiation for 30 mins; format: toxicity, cell-based, Cricetulus griseus; settings: chinese hamster, 0.5 h
[46] = tested on: CHO; experiment: Genotoxicity in CHO cells assessed as chromosomal aberrations at 5.2 ppm after 60 mins in dark followed by 5 W/m'2 UV irradiation for 30 mins; format: toxicity, cell-based, Cricetulus griseus; settings: chinese hamster, 0.5 h
[47] = tested on: CHO; experiment: Genotoxicity in CHO cells assessed as mitotic inhibition at 2.6 ppm after 60 mins in dark followed by 5 W/m'2 UV irradiation for 30 mins; format: toxicity, cell-based, Cricetulus griseus; settings: chinese hamster, 0.5 h

`Cc1ncc(C2CCCN2C)c2c1[nH]c1ccccc12` (configuration not stated) [BREVIOCOLLINE] was tested, and the zone of inhibition at 100 µg/disc [1] was 15.5 mm, the zone of inhibition at 100 µg/disc [2] was 0 mm and the zone of inhibition at 100 µg/disc [3] was 13 mm. For the same compound, the zone of inhibition at 100 µg/disc [4] was 0 mm, the zone of inhibition at 100 µg/disc [5] was 7 mm and the zone of inhibition at 100 µg/disc [6] was 0 mm. For the same compound, the zone of inhibition at 100 µg/disc [7] was 12.5 mm, the zone of inhibition at 100 µg/disc [8] was 0 mm and the zone of inhibition at 100 µg/disc [9] was 14 mm. It also gave a zone of inhibition at 100 µg/disc [10] of 0 mm, a zone of inhibition at 100 µg/disc [11] of 15.3 mm and a zone of inhibition at 100 µg/disc [12] of 0 mm. It also gave a zone of inhibition at 100 µg/disc [13] of 9.5 mm, a zone of inhibition at 100 µg/disc [14] of 0 mm and a zone of inhibition at 100 µg/disc [15] of 7 mm. For the same compound, the zone of inhibition at 100 µg/disc [16] was 0 mm, the Activity [17] was “Toxic” and the Activity [18] was 0%. The Activity [19] was “Active”, the Activity [20] was 56% and the Activity [21] was 37.1%. The Activity [22] was 5.5%, the Activity [23] was 0% and the Activity [24] was “Toxic”.
`COc1cc2nccc3c4ccccc4n(c1=O)c23` [5-METHOXYCANTHINONE] showed a zone of inhibition at 16.7 µg/disc [25] of 7 mm, a zone of inhibition at 16.7 µg/disc [26] of 0 mm and a zone of inhibition at 16.7 µg/disc [27] of 0 mm. For the same compound, the zone of inhibition at 16.7 µg/disc [28] was 0 mm, the zone of inhibition at 16.7 µg/disc [29] was 0 mm and the zone of inhibition at 16.7 µg/disc [30] was 0 mm. For the same compound, the zone of inhibition at 16.7 µg/disc [31] was 8 mm, the zone of inhibition at 16.7 µg/disc [32] was 8 mm and the zone of inhibition at 16.7 µg/disc [33] was 0 mm. It also gave a zone of inhibition at 16.7 µg/disc [34] of 0 mm, a zone of inhibition at 16.7 µg/disc [35] of 8 mm and a zone of inhibition at 16.7 µg/disc [36] of 0 mm. For the same compound, the zone of inhibition at 16.7 µg/disc [37] was 12 mm, the zone of inhibition at 16.7 µg/disc [38] was 0 mm and the zone of inhibition at 16.7 µg/disc [39] was 6 mm. The zone of inhibition at 16.7 µg/disc [40] was 0 mm, the Activity [41] was “Toxic” and the Activity [42] was 0%. For the same compound, the Activity [43] was “Toxic”, the Activity [44] was “Toxic” and the Activity [45] was “Toxic”. The Activity [46] was “Toxic” and the Activity [47] was “Active”.
